Reference: patent publication US12662707B2, “MYC amplification drives resistance to pan-RAS inhibitors in pancreatic cancer” (The Trustees of Columbia University in the City of New York, priority 2024, dated 2026)

Columns and labels:
[1] = RMC-7977 levels in KPCY allograft tumor tissue; assay type: in vivo; settings: C57Bl/6, mouse, oral, 10 mg/kg
Procedure: (§1) Body weights were measured twice a week during the study. Tissue was harvested either at 4 hours or 24 hours after last dose and preserved as previously described (See Xenograft studies section). Whole blood, tumor, colon and skin tissue concentrations of RMC-7977 were determined using liquid chromatography-tandem mass spectrometry (LC-MS/MS) methods. […] After thorough mixing and centrifugation, the supernatant was directly analyzed on a Sciex 6500+ triple quadrupole mass spectrometer equipped with an ACQUITY or Shimadzu UPLC system. An ACQUITY UPLC BEH C18 or C4 […] (2.1×50 mm) column was used with gradient elution for compound separation. RMC-7977 and IS (verapamil or terfenadine) were detected by positive electrospray ionization using multiple reaction monitoring (RMC-7977: m/z 865.4/706.4 or m/z 865.3/833.5; verapamil: m/z 455.2/164.9; terfenadine: m/z 472.3/436.4). […] BA analysis on blood and tissue samples from xenograft models was run at Wuxi AppTec. BA analysis on blood and tissue samples from allograft models and GEMM was run at Revolution Medicines.

[2] = test system: RAS/MAPK pathway (pERK, pAKT, pS6, c-PARP) in human PDAC cell lines; experiment: Western blot of RAS pathway signaling, human PDAC cell lines; assay type: cell-based
Procedure: Cells were seeded at 7.5×10^5-4×10^6 cells per well in 6-well plates or 100 mm dishes in growth medium. After overnight incubation, indicated compound (RMC-7977, IAG933 or DMSO (0.1% v/v)) were added and incubated for the indicated time points. Cells were washed twice with ice-cold PBS and lysed with NP-40 lysis buffer (Thermo Fisher Scientific, J60766), MSD Tris Lysis Buffer (MSD, R60TX-2), RIPA buffer (50 mM TRIS-HCl, pH 7.5, 150 mM NaCl, 1% NP-40, 0.5% sodium deoxycholate, 0.1% SDS) or a lysis buffer containing 1% Triton X-100, 20 mM Tris-HCl, 150 mM NaCl, and 1 mM EDTA. All lysis buffers were supplemented with protease and phosphatase inhibitors. Lysates were scraped and collected before centrifugation at 21,000×g for 10 minutes at 4° C. The protein-containing supernatants were quantified by BCA assay (Pierce, 23225) and equal quantities of protein were denatured with LDS and reducing agent at 95° C. Samples were resolved on 12% or 4-12% Bis-Tris polyacrylamide gels, then transferred to a nitrocellulose or PVDF membrane using the iBlot 2.0 system or wet transfer. Membranes were blocked in Intercept TBS buffer (LiCor, 927-60001) or 3-5% milk before probing with primary antibodies overnight at 4° C. Secondary antibodies were added as appropriate, and the membranes were imaged on a LiCor Odyssey imager. Alternatively, membranes were incubated with HRP-linked secondary antibodies and developed with Clarity or ClarityMax chemiluminescent substrates using a ChemiDoc XRS+ or ChemiDoc™ MP imager (Bio-Rad).

human PDAC cell lines = experiment: Human cell line proliferation / viability assay; assay type: cell-based
Procedure: 19 PDAC cell lines were tested for sensitivity to RMC-7977 as part of a panel of human cancer cell lines of various histotypes screened at Crown Bioscience. These PDAC cell lines harbored KRASG12D, KRASG12V, KRASG12C, KRASQ61H, and BRAFV487_P492delinsA
mutations. To measure inhibition of cell proliferation, cells were cultured in methylcellulose and treated in triplicates with serial dilutions of RMC-7977 (top concentration of 1 μM) or DMSO dispensed by a Tecan D300e digital dispenser (Tecan Trading AG). Cells were incubated for 120 hours prior to measurement of ATP levels using CellTiter-Glo. Technical triplicates were run for each biological replicate and a total of three biological replicates was done for each cell line. CTG assay readouts were plotted as a function of log molar [inhibitor] and a 4-parameter sigmoidal concentration response model was fitted to the data. Mean±s.d. was plotted for each tested dilution.
PDAC cell lines harboring KRASWT or KRASQ61H were plated at 500-4,000 cells/well in clear, flat-bottomed 96-well plates (Corning) and grown for 24 h prior to adding indicated concentration of RMC-7977 or DMSO using the D300e digital dispenser (Tecan). Following treatment, cells were incubated for additional 3-5 days after which live cells were fluorescently labelled using Calcein AM (20-minute incubation at 500 nM, Thermo Fisher) and counted using the SpectraMax i3X multimode detection platform (Molecular Devices). Experiments were day 0 normalized using an independent culture plate. Growth percentage was calculated by normalizing drug-treated values to DMSO control, which was set to 100%. Four-parameter sigmoidal concentration response models were fitted to the data from 3 or more biological replicates. Mean±s.d. was plotted for each tested dilution.

[3] = Pharmacokinetics in Capan-1 xenograft model (tumor and blood); assay type: in vivo; settings: BALB/c (immune-deficient), mouse, tumor vs whole blood, oral; Capan-1 xenograft tumors; read-out: overall exposure (AUC0-48) in tumors compared to blood
Procedure: as §1, with “Studies were terminated early if tumor burden reached humane endpoint. Body” for “Body”, “collected” for “measured”, “Means±s.e.m were plotted in the waterfall plots. For the single-dose pharmacokinetic/pharmacodynamic (PK/PD) study, mice were randomized and assigned into groups (n=3-6/dose/timepoint). […] Sakura, 4583) solution or snap-frozen in LN2 for further analysis. Whole blood” for “Tissue”, “transferred into K2EDTA Microtainer tubes (BD, 365974), incubated for 5 minutes” for “harvested either at 4 hours or 24 hours after last dose”, “snap-frozen in LN2.” for “preserved as previously described (See Xenograft studies section).”

With `CCn1c(-c2cc(N3CCN(C4CC4)CC3)cnc2[C@H](C)OC)c2c3cc(ccc31)-c1csc(n1)C[C@H](NC(=O)[C@H]1[C@@H]3COC[C@@H]31)C(=O)N1CCC[C@H](N1)C(=O)OCC(C)(C)C2` [RMC-7977] the half-life [1] was 3.5 h, the “phosphorylation of ERK1/2 (pERK)” value ([2]; human PDAC cell lines, 1-100 nM) was “reduced phosphorylation” and the “inhibition of PI3K effector signaling (pAKT, pS6S235/S236)” value ([2]; human cell lines) was “more variable inhibition”. For the same compound, the “duration of inhibition of pERK” value ([2]; human cell lines, 100 nM) was 48 hours, the “apoptotic marker cleaved PARP (c-PARP)” value ([2]; human cell lines, later timepoints) was “induction” and the “potency in three additional KRASQ61H PDAC lines” value (human PDAC cell lines; KRASQ61H (Pa02C, T3M-4, UM147), 5 days) was “low nanomolar potency”. For the same compound, the “sensitivity of KRASWT cell lines and organoids” value (human PDAC cell lines; KRASWT cell lines and organoids) was “wider range of sensitivity”, the “potency in concentration-response cell viability assays” value (human PDAC cell lines; most human PDAC cell lines, 5 days) was “low nanomolar potency” and the sensitivity in vitro (human PDAC cell lines; two human cell lines, one KRASQ61H, one KRASWT with BRAF ClassII mutation) was “lower sensitivity”. It also gave a Kp [3] of roughly 3.
